Measured values taken from paper PMC8347595, “N-Skatyltryptamines—Dual 5-HT6R/D2R Ligands with Antipsychotic and Procognitive Potential” (Molecules, 2021).
Where two headings read alike, the source gives them in different places.

Key:
Human Serotonin 5-HT6R [1] = target: T1, Human Serotonin 5-HT6R (Homo sapiens, UniProt P50406); test: 5-HT6R functional assay, antagonistic mode (cAMP induced by 5-CT, 1321N1 cells); type: cell-based; details: antagonistic mode, 5-CT 1000 nM; read-out: 5-HT6 Kb
T1 construct: host or cells: 1321N1 (frozen recombinant cells)
T1 sequence (P50406 whole entry): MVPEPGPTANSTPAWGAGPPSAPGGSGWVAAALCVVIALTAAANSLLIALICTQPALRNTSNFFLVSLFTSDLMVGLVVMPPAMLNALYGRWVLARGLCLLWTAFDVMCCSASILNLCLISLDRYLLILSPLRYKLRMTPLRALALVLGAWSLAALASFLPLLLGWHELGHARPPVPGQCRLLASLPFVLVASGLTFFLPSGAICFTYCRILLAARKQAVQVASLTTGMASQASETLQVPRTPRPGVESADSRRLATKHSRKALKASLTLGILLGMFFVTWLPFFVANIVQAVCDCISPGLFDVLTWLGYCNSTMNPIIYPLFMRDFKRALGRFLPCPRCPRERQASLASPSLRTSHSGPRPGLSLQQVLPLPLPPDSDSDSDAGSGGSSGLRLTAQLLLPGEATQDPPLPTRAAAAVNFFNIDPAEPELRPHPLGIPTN
Experimental: (§1) The properties of compounds to inhibit cAMP production induced by a 5-HT6R agonist 5-CT (1000 nM) was evaluated. Compounds were tested in triplicate at eight concentrations (10^−11–10^−4 M). The level of cAMP was measured using frozen recombinant 1321N1 cells expressing the Human Serotonin 5-HT6R (PerkinElmer). Total cAMP was measured using the LANCE cAMP Detection Kit (PerkinElmer), according to the manufacturer’s instructions. For quantification of cAMP levels, 2000 cells/well ([…]) were incubated with a mixture of compounds ([…]) for 30 min at room temperature in a 384-well white opaque microtiter plate. After incubation, the reaction was stopped and cells were lysed by the addition of […] of working solution ([…] ULight-anti-cAMP) for 1 h at room temperature. Time-resolved fluorescence resonance energy transfer (TR-FRET) was detected by an Infinite M1000 Pro (Tecan) using instrument settings from the LANCE cAMP Detection Kit manual. […] The agonistic properties of compounds were determined with an analogous procedure, but without stimulation with 5-CT [10, 36].

5-HT2AR [2] = target: T2, 5-HT2AR (Homo sapiens, UniProt P28223); test: 5-HT2AR function (no method given)
T2 sequence (P28223 whole entry): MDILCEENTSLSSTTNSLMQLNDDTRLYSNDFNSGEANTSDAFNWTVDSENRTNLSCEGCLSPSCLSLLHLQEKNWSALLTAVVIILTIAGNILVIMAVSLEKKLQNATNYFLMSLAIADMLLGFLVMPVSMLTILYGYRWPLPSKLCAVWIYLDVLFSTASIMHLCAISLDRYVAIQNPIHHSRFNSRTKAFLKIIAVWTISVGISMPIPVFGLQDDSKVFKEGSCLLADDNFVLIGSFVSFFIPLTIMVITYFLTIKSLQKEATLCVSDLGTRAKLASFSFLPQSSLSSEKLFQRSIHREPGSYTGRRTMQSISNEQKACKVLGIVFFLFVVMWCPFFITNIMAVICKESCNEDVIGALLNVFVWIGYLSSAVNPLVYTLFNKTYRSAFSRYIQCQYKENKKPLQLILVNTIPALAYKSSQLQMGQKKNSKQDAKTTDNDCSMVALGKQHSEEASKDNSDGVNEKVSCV

5-HT2AR [3] = target: T2, 5-HT2AR; test: Radioligand binding assay, [3H]-ketanserin displacement; set-up: host or cells: CHO-K1; membrane preparation
5-HT6R = 5-HT6R (Homo sapiens, UniProt P50406); test: Radioligand binding assay, [3H]-LSD displacement
5-HT6R, sequence (P50406 whole entry): as the sequence (P50406 whole entry) above

5-HT7R = 5-HT7R (Homo sapiens, UniProt P34969); test: Radioligand binding assay, [3H]-5-CT displacement
5-HT7R, sequence (P34969 1-432): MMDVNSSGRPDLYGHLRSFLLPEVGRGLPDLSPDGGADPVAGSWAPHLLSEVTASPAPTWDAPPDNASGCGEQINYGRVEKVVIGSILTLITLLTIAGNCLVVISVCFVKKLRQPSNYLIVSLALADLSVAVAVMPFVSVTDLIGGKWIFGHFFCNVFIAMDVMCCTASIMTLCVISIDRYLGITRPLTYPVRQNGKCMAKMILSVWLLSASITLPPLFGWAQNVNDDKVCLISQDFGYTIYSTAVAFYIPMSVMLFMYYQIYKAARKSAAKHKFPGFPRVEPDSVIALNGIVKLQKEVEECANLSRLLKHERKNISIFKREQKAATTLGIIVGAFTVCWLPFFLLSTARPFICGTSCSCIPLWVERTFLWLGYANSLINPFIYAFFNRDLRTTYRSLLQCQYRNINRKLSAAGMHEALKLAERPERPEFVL

5-HT1AR = target: T3, 5-HT1AR (Homo sapiens, UniProt P08908); test: Radioligand binding assay, [3H]-8-OH-DPAT displacement; details: pKi 5-HT1A, Table 1
T3 sequence (P08908 1-422): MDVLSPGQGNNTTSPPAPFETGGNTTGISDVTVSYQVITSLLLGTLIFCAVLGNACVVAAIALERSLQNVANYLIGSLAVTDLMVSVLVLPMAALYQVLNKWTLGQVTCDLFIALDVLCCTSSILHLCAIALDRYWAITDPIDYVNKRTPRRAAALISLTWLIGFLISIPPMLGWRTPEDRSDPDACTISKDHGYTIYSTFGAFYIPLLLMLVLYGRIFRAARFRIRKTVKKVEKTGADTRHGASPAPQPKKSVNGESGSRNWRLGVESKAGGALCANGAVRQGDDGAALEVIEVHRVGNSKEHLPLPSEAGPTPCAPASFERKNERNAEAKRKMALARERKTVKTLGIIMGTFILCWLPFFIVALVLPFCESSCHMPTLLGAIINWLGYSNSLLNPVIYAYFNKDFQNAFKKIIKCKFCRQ

D2R [4] = target: T4, D2R (Homo sapiens, UniProt P14416); test: Radioligand binding assay, [3H]-raclopride displacement
T4 sequence (P14416 whole entry): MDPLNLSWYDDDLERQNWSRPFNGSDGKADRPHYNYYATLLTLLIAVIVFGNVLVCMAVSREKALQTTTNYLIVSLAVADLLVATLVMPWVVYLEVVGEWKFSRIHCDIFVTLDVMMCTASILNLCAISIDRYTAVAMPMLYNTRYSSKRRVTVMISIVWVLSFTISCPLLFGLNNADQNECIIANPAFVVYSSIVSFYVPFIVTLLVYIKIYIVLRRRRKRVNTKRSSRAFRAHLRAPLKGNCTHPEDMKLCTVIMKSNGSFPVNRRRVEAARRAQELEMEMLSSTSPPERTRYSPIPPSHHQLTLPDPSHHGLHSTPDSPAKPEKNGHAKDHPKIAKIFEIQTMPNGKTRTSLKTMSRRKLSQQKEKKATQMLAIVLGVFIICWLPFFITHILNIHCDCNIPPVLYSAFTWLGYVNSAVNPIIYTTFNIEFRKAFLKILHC

Human Serotonin 5-HT6R [5] = target: T1, Human Serotonin 5-HT6R; test: 5-HT6R functional assay, agonistic mode (cAMP, 1321N1 cells); type: cell-based; details: agonistic mode; read-out: 5-HT6 EC50
Experimental: as §1

[6] = Metabolic stability, incubation with mouse liver microsomes; type: in vitro ADME; details: MLMs, 50 µM, 2 h
Experimental: The murine liver microsomes (MLMs) were purchased from Sigma-Aldrich (St. Louis, MO, USA). To determine metabolic pathways, the tested compounds (50 µM) were incubated with 100 mM Tris-HCl buffer at 37 °C with MLMs (1 mg/mL) and NADPH Regeneration System for 2 h. Reactions were quenched with cold, pure methanol and mixtures were centrifuged 14,000 g for 15 min. The supernatants were analyzed using LCMS. The additional MS ion fragmentation of the product and the substrate were performed to determine the most probable structure of the metabolite.

CYP3A4 = target: T5, CYP3A4 (Homo sapiens, UniProt P08684); test: CYP3A4 P450-Glo luminescent assay; type: in vitro ADME; details: compared to ketoconazole; 0.01 to 25 µM
T5 construct: purchased Promega (Madison, WI, USA)
T5 sequence (P08684 whole entry): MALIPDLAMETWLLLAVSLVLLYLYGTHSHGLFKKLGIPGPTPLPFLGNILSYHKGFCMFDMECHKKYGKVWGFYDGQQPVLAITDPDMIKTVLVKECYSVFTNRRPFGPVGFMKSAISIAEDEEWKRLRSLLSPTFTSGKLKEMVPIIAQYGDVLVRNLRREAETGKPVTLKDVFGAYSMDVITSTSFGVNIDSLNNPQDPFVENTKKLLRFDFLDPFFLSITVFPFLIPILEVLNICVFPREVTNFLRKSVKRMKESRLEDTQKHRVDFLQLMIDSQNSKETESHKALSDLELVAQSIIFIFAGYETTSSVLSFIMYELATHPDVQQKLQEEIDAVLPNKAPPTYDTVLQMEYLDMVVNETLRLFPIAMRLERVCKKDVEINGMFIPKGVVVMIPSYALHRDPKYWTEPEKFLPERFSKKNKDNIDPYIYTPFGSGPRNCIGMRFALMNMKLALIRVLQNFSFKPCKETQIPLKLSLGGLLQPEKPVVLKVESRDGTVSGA
Experimental: The experiments were provided using commercially available luminescent CYP3A4 P450-Glo™ and CYP2D6 P450-Glo™ tests purchased from Promega (Madison, WI, USA). The enzymatic reactions were conducted in polystyrene, flat-bottom Nunc™ MicroWell™ 96-well microplates (Thermo Scientific, Waltham, MA, USA). The assays were carried out according to the procedures provided by the manufacturer, as described previously. Compounds were tested in triplicate at the final concentrations in a range from 0.01 to 25 µM for both isoforms of CYP450. The references of CYP3A4 and CYP2D6 inhibitors (ketoconazole and quinidine, respectively) were tested in a range from 0.001 to 10 µM. Tested compounds were incubated in 100 mM Tris-HCl buffer separately with CYP3A4 and CYP2D6 membranes and the NADPH Regeneration System for 30 min at room temperature in triplicate. The bioluminescent signal was measured after the addition of the Luciferin Detection Reagent by using a microplate reader EnSpire PerkinElmer (Waltham, MA, USA). Both reagents (NADPH Regeneration System and Luciferin Detection Reagent) were purchased from Promega (Madison, WI, USA).

HepG2 cell line = test: Hepatotoxicity assay, HepG2 viability; type: cell-based; details: 1 μM, 72 h
Experimental: To estimate the hepatotoxicity of compounds, the hepatoma HepG2 (ATCC® HB-8065TM) cell line was used according to previously described protocols. The CellTiter 96® AQueous Non-Radioactive Cell Proliferation Assay was obtained from Promega (Madison, WI, USA). The compounds were tested in quadruplicate at four concentrations (1–100 µM) for 72 h.

[7] = PAMPA
[8] = Metabolic stability, incubation with mouse liver microsomes; type: in vitro ADME; details: MLMs, prolonged incubation
in vitro = details: PAMPA, pH 7.4
D2R [9] = target: T4, D2R; test: D2R functional assay, antagonist mode (cAMP, HEK293 cells); type: cell-based; set-up: expressed in transfected cells
Experimental: The supernatant was aspirated, and the cell pellet was resuspended in stimulation buffer (1 × HBSS, 5 mM HEPES, 0.5 mM IBMX, 0.1% BSA).
The functional properties of compounds were evaluated using the LANCE Ultra cAMP Detection Kit (PerkinElmer). D2 receptors in HEK293 cells are coupled to Gi subtype and decreased cAMP production. […] Each compound was tested in triplicate at eight concentrations (10^−11–10^−4 M).
For quantification of cAMP levels, cells (5 µL) were incubated with 5 µL mixture of compounds (tested ligand and forskolin with 100 nM quinpirole for antagonist binding mode) for 30 min at room temperature in 384-well white opaque microtiter plate (PerkinElmer). After incubation, the reaction was stopped and cells were lysed by the addition of 10 µL working solution (5 µL Eu-cAMP and 5 µL ULight-anti-cAMP). The assay plate was incubated for 1 h at room temperature. Time-resolved fluorescence resonance energy transfer (TR-FRET) signal was detected by an Infinite M1000 Pro (Tecan) using instrument settings from the LANCE Ultra cAMP Detection Kit manual.

5-HT6 [10] = tested on: 5-HT6; set-up: method as in Dupuis et al. (2008) [31]; details: Figure 8; ref Dupuis et al. (2008) [31]; cited from earlier work
D2 = target: D2; set-up: method as in Dupuis et al. (2008) [31]; details: Figure 8; ref Dupuis et al. (2008) [31]; cited from earlier work
5-HT6 [11] = details: read-out: Ki 5-HT6; Figure 8; ref Dupuis et al. (2008) [31]; cited from earlier work

Compound: c1ccc2c(CCNCc3c[nH]c4ccccc34)c[nH]c2c1 [Compound 1, [2-(1H-indol-3-yl)ethyl][(1H-indol-3-yl)methyl]amine]
- Kb (Human Serotonin 5-HT6R [1]): 0.151 µM
- 5-HT2AR function in words (5-HT2AR [2]): 5-HT2AR partial agonist
- Ki (5-HT2AR [3]; Ki 5-HT2A): 0.02 µM
- Ki (5-HT2AR [3]; pKi 5-HT2A, Table 1): 0.02 µM
- Ki (5-HT6R; Ki 5-HT6, Figure 8): 0.172 µM
- Ki (5-HT6R; pKi 5-HT6, Table 1): 0.174 µM
- Ki (5-HT7R): 28.8 µM
- Ki (5-HT1AR): 1.51 µM
- pKi D2 (D2R [4]; Table 1): 7.22

Compound: Clc1ccc2c(CCNCc3c[nH]c4ccccc34)c[nH]c2c1 [Compound 5]
- EC50 (Human Serotonin 5-HT6R [5]): 0.157 µM
- Kb (Human Serotonin 5-HT6R [1]): 0.136 µM
- Metabolic Pathway, metabolite M1 [6]: hydroxylation
- effect on CYP3A4 activity (CYP3A4): inducer of CYP3A4
- HepG2 cell viability (HepG2 cell line): ~ 80 % of the control
- effect on HepG2 proliferation in words (HepG2 cell line): slight antiproliferative effect
- permeability in words [7]: medium permeability coefficients
- number of hydroxylated metabolites [8]: only one hydroxylated metabolite
- Papp at 5 h, 200 µM (in vitro): 7.09 ± 1.24 ×10⁻⁶ cm/s
- Kb (D2R [9]; antagonistic mode, 100 nM quinpirole, read-out: D2 Kb): 0.104 µM
- EC50 (D2R [9]; read-out: EC50 (D2 receptor, antagonistic function)): 0.104 µM
- Ki (5-HT2AR [3]; Table 1, read-out: pKi 5-HT2A (converted)): 1.17 µM
- Ki (5-HT7R): 15.8 µM
- Ki (5-HT1AR): 3.31 µM
- Ki (D2R [4]; Ki D2, Figure 8): 0.155 µM
- Ki (D2R [4]; pKi D2, Table 1): 0.155 µM

Compound: O=C1Cc2cc(CCN3CCN(c4nsc5ccccc45)CC3)c(Cl)cc2N1 [Ziprasidone]
- Kb (5-HT6 [10]): 0.0575 µM
- Ki (D2): 0.0008 µM
- Ki (5-HT6 [11]): 0.02 µM
